Data from patent US5266707A, “3,5-dihydroxyheptanoic acid derivatives” (Fujirebio Inc., priority 1991, dated 1993).
Like-named read-outs stand apart in the source and are kept apart here.

What was measured:
[1] = test system: automatic TBARS reproduction of the rat brain homogenate; assay: Measurement of Anti-oxidation Function (inhibition of automatic TBARS reproduction of rat brain homogenate); type: biochemical; details: inhibition of TBARS in rat brain homogenate
HMG-CoA Reductase = target: T1, HMG-CoA Reductase (Rattus norvegicus, UniProt P51639); assay: Measurement of Inhibitory Activity on HMG-CoA Reductase (activity ratio of biosynthesis of cholesterol); type: biochemical
T1 construct: from tissue
T1 sequence (P51639 1-887): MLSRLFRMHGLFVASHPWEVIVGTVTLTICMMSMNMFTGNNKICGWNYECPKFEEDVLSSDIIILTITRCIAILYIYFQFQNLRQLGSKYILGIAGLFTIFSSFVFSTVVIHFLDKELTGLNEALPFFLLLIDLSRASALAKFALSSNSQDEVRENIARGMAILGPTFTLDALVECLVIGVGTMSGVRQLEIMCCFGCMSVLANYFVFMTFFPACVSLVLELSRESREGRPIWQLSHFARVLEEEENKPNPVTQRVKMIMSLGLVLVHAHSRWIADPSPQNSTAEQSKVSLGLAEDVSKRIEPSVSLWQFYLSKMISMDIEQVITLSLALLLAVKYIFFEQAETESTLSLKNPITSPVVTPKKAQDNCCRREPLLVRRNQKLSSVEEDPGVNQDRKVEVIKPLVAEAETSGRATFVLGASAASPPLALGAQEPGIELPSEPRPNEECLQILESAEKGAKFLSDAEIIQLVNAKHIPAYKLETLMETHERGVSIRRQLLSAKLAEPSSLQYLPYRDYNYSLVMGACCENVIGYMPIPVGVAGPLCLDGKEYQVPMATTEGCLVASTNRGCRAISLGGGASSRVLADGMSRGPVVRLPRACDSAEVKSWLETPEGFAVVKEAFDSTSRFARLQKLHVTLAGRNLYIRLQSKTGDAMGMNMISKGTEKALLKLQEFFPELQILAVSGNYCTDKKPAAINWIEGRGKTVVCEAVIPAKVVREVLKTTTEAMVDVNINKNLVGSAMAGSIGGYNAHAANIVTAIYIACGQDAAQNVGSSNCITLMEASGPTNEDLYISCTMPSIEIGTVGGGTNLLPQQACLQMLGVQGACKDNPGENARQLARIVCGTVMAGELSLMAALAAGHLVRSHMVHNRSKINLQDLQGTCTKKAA

[2] = test system: total serum cholesterol in model rats with Triton-induced hyperlipemia; assay: Measurement of Reduction in Cholesterol Value (total serum cholesterol, Triton-induced hyperlipemia model rats); type: in vivo, rat; details: value of Compactin (ML-236B) as reference (100)
[3] = Relative value when the value of Compactin is 100

Activity ratio of Biosynthesis of Cholesterol, Reactive Inhibitory Potency (HMG-CoA Reductase; [3])	Compound	IC50 [1] [nM]	Reduction of Cholesterol Value [2]	Activity ratio of Biosynthesis of Cholesterol, Reactive Inhibitory Potency (HMG-CoA Reductase)
	Cc1c(N)c(C)c2c(c1CC[C@H]1C[C@H](O)CC(=O)O1)OC(C)(C)C2 (racemic) [Compound No. 10, trans-(±)-6-[5-amino-2,3-dihydro-2,2,4,6-tetramethylbenzo[b]furan-7-yl]ethyl-4-hydroxytetrahydropyran-2-one]	2750		
250	Cc1c(CC[C@H]2C[C@H](O)CC(=O)O2)c2c(c(C)c1N1Cc3ccccc3C1)CC(C)(C)O2 (racemic) [Compound No. 13, trans-(±)-6-[2,3-dihydro-5-(isoindolin-2-yl)-2,2,4,6-tetramethylbenzo[b]furan-7-yl]ethyl-4-hydroxytetrahydropyran-2-one]	1440	180	
	Cc1c(CC[C@H]2C[C@H](O)CC(=O)O2)c2c(c(C)c1N1CCCC1)CC(C)(C)O2 (racemic) [Compound No. 17, trans-(±)-6-[2,3-dihydro-2,2,4,6-tetramethyl-5-(pyrrolidin-1-yl)benzo[b]furan-7-yl]ethyl-4-hydroxytetrahydropyran-2-one]	1490		
	Cc1c(CC[C@H]2C[C@H](O)CC(=O)O2)c2c(c(C)c1N1CCc3ccccc3C1)CC(C)(C)O2 (racemic) [Compound No. 24, trans-(±)-6-[2,3-dihydro-5-(1,2,3,4-tetrahydroisoquinolin-2-yl)-2,2,4,6-tetramethylbenzo[b]furan-7-yl]ethyl-4-hydroxytetrahydropyran-2-one]	1630		
170	Cc1c2c(c(CC[C@H]3C[C@H](O)CC(=O)O3)c(C(C)C)c1NCc1ccccc1)OC(C)(C)C2 (racemic) [Compound No. 43, trans-(±)-6-[5-benzylamino-2,3-dihydro-2,2,4-trimethyl-6-(propan-2-yl)benzo[b]furan-7-yl]ethyl-4-hydroxytetrahydropyran-2-one]			
1550	Cc1c(CCC(O)CC(O)CC(=O)O)c2c(c(C)c1-n1cc3ccccc3c1)CC(C)(C)O2 (racemic) [Compound No. 94, sodium 7-[2,3-dihydro-5-isoindolyl-2,2,4,6-tetramethylbenzo[b]furan-7-yl]-3,5-dihydroxyheptanoate]			
250	Cc1c(CC[C@@H]2C[C@@H](O)CC(=O)O2)c2c(c(C)c1-n1cc3ccccc3c1)CC(C)(C)O2 (relative stereo) [Compound No. 14, trans-(±)-6-[2,3-dihydro-5-isoindolyl-2,2,4,6-tetramethylbenzo[b]furan-7-yl]ethyl-4-hydroxytetrahydropyran-2-one]			
	CC[C@H](C)C(=O)O[C@H]1CCC=C2C=C[C@H](C)[C@H](CC[C@@H]3C[C@@H](O)CC(=O)O3)[C@H]21 [Compactin, reference compound]		100	
	Cc1c(CCC(O)CC(O)CC(=O)[O-])c2c(c(C)c1N1Cc3ccccc3C1)CC(C)(C)O2.[Na+] (stereo not shown) [Compound No. 15, sodium 7-[2,3-dihydro-5-(isoindolin-2-yl)-2,2,4,6-tetramethylbenzo[b]furan-7-yl]-3,5-dihydroxyheptanoate]	1670	320	830
	CC(C)c1c(N2Cc3ccccc3C2)cc2c(c1CCC(O)CC(O)CC(=O)[O-])OC(C)(C)C2.[Na+] (stereo not shown) [Compound No. 76, sodium 7-[2,3-dihydro-5-(isoindolin-2-yl)-2,2-dimethyl-6-(propan-2-yl)benzo[b]furan-7-yl]-3,5-dihydroxyheptanoate]	6500		2730
	CC1(C)Cc2cc(N3Cc4ccccc4C3)c(C(C)(C)C)c(CCC(O)CC(O)CC(=O)O)c2O1 (stereo not shown) [Compound No. 93, sodium 7-[6-(t-butyl)-2,3-dihydro-5-(isoindolin-2-yl)-2,2-dimethylbenzo[b]furan-7-yl]-3,5-dihydroxyheptanoate]	2000		

Compound	Activity ratio of Biosynthesis of Cholesterol, Reactive Inhibitory Potency (HMG-CoA Reductase; [3])	IC50 [1] [nM]	Reduction of Cholesterol Value [2]	Activity ratio of Biosynthesis of Cholesterol, Reactive Inhibitory Potency (HMG-CoA Reductase)
Cc1c(CCC(O)CC(O)CC(=O)O)c2c(c(C)c1N1Cc3ccccc3C1)CC(C)(C)O2 (stereo not shown) [Compound No. 12, 7-[2,3-dihydro-5-(isoindolin-2-yl)-2,2,4,6-tetramethylbenzo[b]furan-7-yl]3,5-dihydroxyheptoic acid]	1500	1580	330	
